Assays:
[1] = system: GTC seizures in human patient; experiment: Example 6 human patient, GTC and CPS seizures after temporal lobectomy; type: in vivo; details: re-introduction of lamotrigine (225 mg twice a day)
Procedure: A patient with a longstanding history of GTC and CPS seizures ([…]) was evaluated for surgical intervention and underwent a right temporal lobectomy in 2013. No seizure activity was experienced for 9 months; thereafter, seizures recurred with GTC seizures occurring one time per week requiring hospitalization.
The patient was first evaluated for cannabinoid treatment on Feb. 11, 2016, […] with their parents (caregivers). They were still experiencing approximately 1 GTC seizure per month at that time. On physical examination, their neurological system was grossly within normal limits. The patient's mentation was evaluated as slow, but they were responsive and fully oriented. At the time of this first visit, they had no previous exposure to cannabinoid treatment.

[2] = system: seizures in human patient; experiment: Example 3 human patient, GTC and complex partial seizures; type: in vivo
Excerpt: A patient first started having GTC and complex partial (CP) seizures. […] The patient was referred for evaluation for initiation of cannabinoid/THC treatment in March 2014.

DS, LGS, TSC patients [3] = details: Ped. RCTs, cited from earlier work
[4] = system: Treatment Resistant Epilepsy patients; details: EAP, cited from earlier work
DS, LGS, TSC patients [5] = experiment: EPIDIOLEX pediatric randomized controlled clinical trials (RCTs); type: in vivo, human; details: Ped. RCTs; expected 5%
[6] = system: Treatment Resistant Epilepsy patients; experiment: EPIDIOLEX expanded access program (EAP), adults and pediatrics; type: in vivo, human; details: expected 5%
[7] = system: seizures / EEG abnormalities in human patient; experiment: Example 8 pediatric patient with atonic seizures, myoclonic seizures and Doose syndrome (24 hour EEG, seizures); type: in vivo; details: CBD transdermal patches
Procedure: They had continued to experience several seizures per day of all types despite multiple combination regimens of prescription anti-seizure medications and a trial of THC-A transdermal patch and CBD (Charlotte's Web) oral tincture and CBD transdermal patches up until the day they were first evaluated for cannabinoid treatment (age 4.5 on Mar. 8, 2016). […] They were then prescribed 1 mg oral THC tincture three times per day. On Mar. 8, 2018, the patient returned for follow-up where it was learned that all cannabinoids had been discontinued. […] The THC-A transdermal patch was restarted at 1.875 mg/day with a reduction in EEG abnormalities to 400/24 hours. Oral THC 2.5 mg BID was then restarted with a further reduction in EEG abnormalities to 20/24 hours. […] Due to the significant reduction in brain pre-seizure activity after restarting THC and concerns that there are effective dosage variations among transdermal products, the patient was then prescribed oral THC 2.5 mg BID which they continue to take.

[8] = system: GTC seizures in human patients; experiment: THC treatment of several human patients with GTC seizures (responder rate, one-year remission rate, adverse effects); type: in vivo
Excerpt: Several human patients commenced treatment with THC after a first visit. More details about the treatment are provided below. The group included 82 total adult patients and 12 total pediatric patients. Of those 94 patients, 34 adult patients and 10 pediatric patients had experienced at least one GTC seizure in the year preceding the first visit. At the time of first visit, 14 of the 34 adult patients and 8 of the 10 pediatric patients had never taken THC. At the time of first visit, five of the 34 adult patients and two of the 10 pediatric patients were consistently/regularly taking THC. At the time of first visit, 15 of the 34 adult patients and none of the 10 pediatric patients were inconsistently/irregularly taking THC or had taken THC at some point in the past and were no longer taking THC.
At the time of first visit, 16 of the 34 adult patients had treatment resistant epilepsy, which means the patients had persistent GTC seizures despite taking two different anti-seizure medications at, or prior to, the first visit. At the time of first visit, all 10 of the pediatric patients had treatment resistant epilepsy.
The first visit means the date when the patient first saw the doctor for evaluation for THC treatment for GTC seizures. Responder rates means the percentage of patients that had at least a 50% reduction in GTC seizure frequency over a one-year treatment period with THC. One-year remission rate means the percentage of patients that experienced no GTC seizures in a one-year period after commencing THC treatment.
All of the 34 adult patients and 10 pediatric patients were taking other anti-seizure medications or had other anti-seizure treatment at the time of the first visit. […] Those anti-seizure medications and other anti-seizure treatments included: lamotrigine, topiramate, topiramate XR, vagus nerve stimulation, phenytoin, valproic acid, zonisamide, benzodiazepine, surgery, levetiracetam, carbamazepine, oxcarbazepine, lacosamide, perampanel, clonazepam, phenobarbial, pregabalin, gabapentin, rufinamide, CBD (e.g., Epidiolex), clobazam, and felbamate. Also, all patients who were using THC oral dosages were using products that included no CBD or products that included CBD in doses well below the therapeutic dose for Epidiolex.
THC Treatment for the 82 adult patients varied. Many of the patients smoked marijuana, so the dosage and/or timing of the dosage was unknown. Because CBD is delivered at sub-therapeutic levels when marijuana is smoked, it is acceptable to attribute any therapeutic effect to THC. The label for the CBD drug Epidiolex includes dosages starting at 5 mg/kg daily for all indications, and increasing to maintenance doses of 10 mg/kg or 20 mg/kg for Lennox-Gestault Syndrome and Dravet Syndrome, and increasing to maintenance doses of 25 mg/kg per day for Tuberous Sclerosis Complex. When 1 gram of cannabis is smoked, it delivers CBD to the lungs in doses well below the therapeutic dose levels prescribed for Epidiolex. Some other patients took unknown dosages of THC orally.

Nc1nnc(-c2cccc(Cl)c2Cl)c(N)n1 [lamotrigine]
seizure frequency [1]: decreased to 1 GTC seizure about every month | effect on seizures ([2]; lamotrigine 60 mg twice daily): still having seizures

C=C(C)[C@@H]1CCC(C)=C[C@H]1c1c(O)cc(CCCCC)cc1O [EPIDIOLEX ®]
1 YR Seizure Remission Rate (DS, LGS, TSC patients [3]; @14 wks): 6-7% @14 wks | Responder Rate (DS, LGS, TSC patients [3]; DS, LGS, TSC, @ 14 wks): ~45% @ 14 | Adverse Events (DS, LGS, TSC patients [3]): Up to 12% | 1 YR Seizure Remission Rate ([4]; @48 wks): 11% @48 wks | Responder Rate ([4]; TRE, @48 wks): 53% @48 wks | Adverse Events [4]: 7% | Increase in 1 YR Seizure Remission Rate over expected (DS, LGS, TSC patients [5]): ~1.4X | Increase in 1 YR Seizure Remission Rate over expected [6]: ~2.2X

C=C(C)[C@@H]1CCC(C)=C[C@H]1c1c(O)cc(CCCCC)cc1O [CBD, cannabidiol]
effect on seizures ([2]; CBD patches and an oral CBD spray): no improvement in their seizures | effect on seizures ([2]; oral CBD 0.48 mg/kg, or 50 mg per day, along with topiramate): no improvement | effect on seizures [7]: worsened seizures in a dose-related fashion | seizure outcome, individual pediatric patient ([8]; CBD-only containing product, 134 mg CBD per day and no THC): frequent “violent” GTC seizures | seizure frequency and severity, individual pediatric patient ([8]; switched to 30 mg CBD only (2015)): seizure frequency and severity increased

From US12036228B2, “Treatment of seizure disorders” (Shackelford Pharma Inc., priority 2022, dated 2024)
